From patent US20070166187A1, “Stabilization of paricalcitol using chlorobutyl or chlorinated butyl stoppers” (priority 2006, published 2007)

Key:
[1] = accelerated stability model: paricalcitol solution in stoppered vials or ampule, inverted, 80° C., 21 days, HPLC; assay type: physicochemical
Experimental: In order to effectively evaluate different container closures, an accelerated stability model was devised, wherein vials that contained a paricalcitol solution and were sealed with 27 different types of stoppers were stored inverted and protected from light at 80° C. for 21 days. The vials were different only in the composition of the stoppers which were obtained from commercially available sources. Throughout the 21 day trial, samples were removed at day 2, 7, 14 and 21, and the contents of the vial were analyzed by HPLC (High Pressure Liquid Chromatography) to determine the concentration of the test compound paricalcitol compared to a control sample of known concentration. The control sample consisted of a paricalcitol injection solution stored in a sealed glass ampule which maintained 100% potency for the entirety of the test (21 days). The relative concentration of the paricalcitol in the vials stored with test stoppers compared to the control sample was measured indicating stability of the paricalcitol over the 21 day test. In addition, the accelerated shelf-life study conditions were conducted on an identical vial wherein the headspace of the vials was blanketed with argon gas above the paricalcitol solutions prior to sealing with the appropriate stopper. The argon blanketed sample containing a lower concentration of oxygen was compared to the control sample to determine the stability of the test compound in a more inert atmosphere. The 80° C. 21 day rapid screening method of solutions of paricalcitol in the presence of different stoppers was designed to predict the stability of the test compound (i.e., paricalcitol) relative to the containers that are used in the current marketed product. The paricalcitol solution preparation: (5 mcg/mL in water-propylene glycol-ethanol/50:30:20; as defined under USP28-NF23 Page 1471 guidelines) contains not less than 90.0 percent and not more than 110.0 percent of the labeled amount of paricalcitol (C27H44O3). 1 mL of solution was added to a 5 mL or 10 mL (for 20 mm stopper) Type 1 glass vial. The vials were sealed with the various types of stoppers. In order to evaluate the effect of oxygen, a second series of identical vials was blanketed with argon prior to capping with the stoppers. All of the samples were stored inverted in a light-protected, 80° C. oven to obtain maximum contact between solution and the stopper. Ampule samples (with no headspace argon gassing) were prepared and stored along with vials under the same condition to serve as a control. At least 2 samples for each type of stopper were pulled out at 2, 7, 14, and 21 day time points and assayed using HPLC without further dilution. Paricalcitol concentration profiles from the vials containing different composition stoppers were compared to the same solution packaged in ampules. The relative concentration of remaining paricalcitol was plotted over the course of the 21 day test to determine the relative stability of paricalcitol in the presence of the test stopper. Chromatographic system used: The liquid chromatograph was equipped with a 252-nm detector and a 4.6-mm×25-cm column that contains 5-μm packing L1 with a flow rate about 2 mL per minute. […] Separately inject equal volumes (about 100 to 200 μL) of the Standard preparation and the Assay preparation into the chromatograph, record the chromatograms, and measure the responses for the major peaks. Calculate the quantity, in μg, of paricalcitol (C27H44O3) in each mL of the Injection taken by the formula: C(rU/rS), in which C is the concentration, in μg per mL, of paricalcitol in the control standard, calculated on the basis of the content of paricalcitol in the USP Paricalcitol Solution RS; and rU and rS are the paricalcitol peak responses obtained from the test samples and the control standard, respectively. Results Five stability studies were conducted to evaluate the stoppers. […]

[2] = formulation study of the effect of BHT on paricalcitol stability, 35 day 80° C. degradation model; assay type: physicochemical; conditions: no BHT, ampule and vial with 4432/50/Flu/B2-40 stopper, 35 days
Experimental: BHT is an antioxidant and is often used to protect chemicals and materials from oxidative degradation and is present in several of the stoppers. Levels of BHT were identified in the test samples during the 21 day, 80° C. storage and during a separate 25, 30, and 40° C. stability studies conducted over a 9-month interval. […] To determine, whether or not BHT would enhance the stability or cause degradation of the paricalcitol solution, a formulation study was conducted to evaluate the effect of BHT on the stability of paricalcitol in the Zemplar® formulation with the current stopper using a 35 day 80° C. degradation model. In this study, different amounts of BHT were added to the Zemplar® formulation with concentrations of 0.05, 0.1, 0.5, and 1.0 mcg/mL. The controls consisted of the Zemplar formulation without BHT contained in ampules and vials sealed with either […]-1/FT/B2-40 or the 4432/50/Flu/B2-40 stoppers. […] Therefore, causes not fully understood led to the enhanced stabilization of the paricalcitol solution contained in samples with 4432/50/Flu/B2-40 stoppers.

[3] = commercially available injection vial containing a solution of paricalcitol; cited from earlier work

stability with argon headspace gassing ([1]; Study 1, argon headspace, chlorobutyl stoppers versus other stoppers): more stable | degradation over the 21 day test period ([1]; Study 1, without argon headspace, Stopper #8 (Ashland chlorobutyl, Tefzel) and Stopper #7 (Ashland chlorobutyl, uncoated) versus stoppers #3, 10, 12, 13): least degradation | paricalcitol concentration ([1]; Study 2, West chlorobutyl and Daikyo chlorinated butyl stoppers, 21 days at 80° C.): remained unchanged | concentration of paricalcitol at the 21 day interval ([1]; Study 2, argon headspace, butyl, bromobutyl and POE stoppers compared to chlorobutyl and chlorinated butyl stoppers): still lowest | stability profile ([1]; Study 3, without argon, Ashland 5212 chlorobutyl stoppers with Plasma and Prop coatings): constant stability profiles | performance relative to ampule ([1]; Study 4, West 4432/50 stopper without any barrier coating): performed as well as the ampule sample | time point at which potency drop starts ([1]; vial with D777-1/FT/B2-40 stopper (marketed stopper), 80° C.): 7 days | rate of decomposition over the 21 days ([1]; vials sealed with chlorobutyl or chlorinated butyl stoppers, 80° C.): slowest rate of decomposition | paricalcitol concentration [2]: remained constant
Compound: C[C@H](/C=C/[C@H](C)C(C)(C)O)[C@H]1CC[C@H]2/C(=C/C=C3C[C@@H](O)C[C@H](O)C3)CCC[C@]12C [paricalcitol]
concentration of paricalcitol within the vial ([1]; Study 1, without argon headspace, Stopper #8 (Ashland chlorobutyl, Tefzel)): comparable to the sample stored in the ampule | concentration of paricalcitol throughout the 21 day test ([1]; Study 4, stoppers consisting of chlorobutyl material): consistently maintained the highest concentration | current shelf-life [3]: 1 year
